Laboratory results reported in US20220047711A1, “PHOTOCROSSLINKING PEPTIDES FOR SITE SPECIFIC CONJUGATION TO FC-CONTAINING PROTEINS” (Genentech, Inc., priority 2018, published 2022).
“And” between values parts separate entries of the source, which are not always exact repeats. Equal values may be shown once.

Key:
Trastuzumab (TMab) [1] = molecular target: T1, Trastuzumab (TMab) (Homo sapiens, UniProt P01857, D239E/L241M); assay: Photoconjugation (UV 365 nm) of peptide to Trastuzumab, DAR by LC-MS
T1 construct: Genentech (HERCEPTIN)
Protocol: (§1) Example 2: Antibody conjugation. Conjugation reactions for photocrosslinking peptides were performed open and uncovered in V-bottom, clear, polystyrene 96-well plates (ThermoFisher, product #2605) with a final reaction volume of 50 μL. Unused wells were filled with 150 μL of deionized water. Optimized reactions were performed in 20 mM histidine acetate buffer, pH=5.5, with a final concentration of 48 μM antibody, 480 μM photo-crosslinking peptide, 480 μM 5-hydroxyindole ([…], Sigma-Aldrich), with 11% (v/v) DMSO. […] The DAR was assessed by LC-MS analysis of Fc/2 or heavy chain fragments generated by IdeS or DTT treatments of Trastuzumab, respectively.

mouse IgG1 antibody (D) = mouse IgG1 antibody (D) (Mus musculus, UniProt P01868); assay: Photoconjugation of peptide to mouse IgG1 antibody D, DAR; conditions: Mouse IgG1 (no Met-252)
Protocol: as §1

[2] = molecular target: human IgG4 "YTE" mutant (B) (Homo sapiens, UniProt P01861, M132Y/S134T/T136E); assay: Photoconjugation of peptide to human IgG4 YTE mutant antibody B, DAR; conditions: Human IgG4 YTE mutant (no Met-252)
Protocol: as §1

Trastuzumab (TMab) [3] = molecular target: T1, Trastuzumab (TMab); assay: SPR binding of peptides to immobilized Trastuzumab; conditions: for Kd: TMab, FIG. 3C; for reduced binding affinity (Kd fold decreased) compared to the Fc-III peptide: relative to Fc-III
Protocol: Example 2: SPR binding experiments. Kinetics of peptide binding to Trastuzumab were measured by surface plasmon resonance (SPR) on a Biacore 3000 instrument (GE Healthcare) using a previously established method. (Gong, Y.; et al., Development of the Double Cyclic Peptide Ligand for Antibody Purification and Protein Detection. Bioconjugate chemistry 2016). An amine coupling kit (GE Healthcare) was used to immobilize Trastuzumab to the surface of a CM5 Sensor Chip (GE Healthcare). All injections were double-referenced with real-time reference channel subtraction and buffer blank injections. Data were analyzed using the BiaEvaluation software (version 4.1, GE Healthcare).

rabbit IgG (C) = rabbit IgG (C) (Oryctolagus cuniculus, UniProt P01870); assay: Photoconjugation of peptide to rabbit IgG antibody C, DAR
Protocol: as §1

Trastuzumab (TMab) [4] = molecular target: T1, Trastuzumab (TMab); assay: Photoconjugation (UV 365 nm) of peptide to Trastuzumab, DAR by LC-MS; conditions: PBS, micro-centrifuge tubes on ice, hand-held 365 nm lamp, one hour
human IgG4 antibody (A) = human IgG4 antibody (A) (Homo sapiens, UniProt P01861); assay: Photoconjugation of peptide to human IgG4 antibody A, DAR
Protocol: as §1

Rituximab (human IgG1) = assay: Photoconjugation of peptide to Rituximab, DAR
human IgG = conditions: previously reported, Gong et al. 2016; cited from earlier work
[5] = 96-well plate directly under 365 nm lamp, room temperature, 4.5 hours

CC(=O)N[C@@H](CC(=O)O)C(=O)N[C@H]1CSSC[C@@H](C(=O)N[C@H](C(N)=O)[C@@H](C)O)NC(=O)[C@H](Cc2c[nH]c3ccccc23)NC(=O)[C@H](Cc2ccc(C(=O)c3ccccc3)cc2)NC(=O)[C@H](CC(C)C)NC(=O)[C@H](CCC(=O)O)NC(=O)CNC(=O)[C@H](CC(C)C)NC(=O)[C@H](Cc2c[nH]cn2)NC(=O)[C@H](Cc2c[nH]c3ccccc23)NC(=O)[C@H](C)NC1=O [BPA7, Ac-DCAWHLGELBWCT-NH2]
DAR (Trastuzumab (TMab) [1]; [5]): ~1.7 | DAR (photoconjugation efficiency) (Trastuzumab (TMab) [1]; FIG. 3C, peptide series comparison): 1.9 | DAR (Trastuzumab (TMab) [1]; Row B: 267 μM BPA7, PBS, on ice (~4° C.), 4 hours): 1.5 | DAR (Trastuzumab (TMab) [1]; Row C: 267 μM BPA7, histidine-acetate pH 5.5, on ice, 4 hours): 1.8 | DAR (Trastuzumab (TMab) [1]; Row D: 267 μM BPA7, PBS, 267 μM 5-hydroxyindole, on ice, 4 hours): 1.4 | DAR (Trastuzumab (TMab) [1]; Row E: 480 μM BPA7 (10-fold over antibody), histidine-acetate pH 5.5, 5-hydroxyindole, 6 hours, on ice): 1.9 | DAR reached upon photoconjugation to BPA7 (Trastuzumab (TMab) [1]; Trastuzumab, Human IgG1): 2.0 | DAR (Trastuzumab (TMab) [1]; irradiation chamber, Row A: 267 μM BPA7, PBS, room temperature, 4 hours): 1.8 | DAR reached upon photoconjugation to BPA7 (mouse IgG1 antibody (D)): 0 | DAR reached upon photoconjugation to BPA7 [2]: 0.0 | Kd (Trastuzumab (TMab) [3]): ~70 µM and 70 µM | bound to TMab less tightly than BPA9 (Trastuzumab (TMab) [3]; relative to BPA9): ~150 fold | reduced binding affinity (Kd fold decreased) compared to the Fc-III peptide (Trastuzumab (TMab) [3]): greater than 4000 fold | DAR reached upon photoconjugation to BPA7 (rabbit IgG (C)): 1.2 | drug-to-antibody ratio (DAR) (Trastuzumab (TMab) [4]): ~0.04 | DAR reached upon photoconjugation to BPA7 (human IgG4 antibody (A)): 2.0 | DAR reached upon photoconjugation to BPA7 (Rituximab (human IgG1)): 2.0

CC(=O)N[C@@H](CC(=O)O)C(=O)N[C@H]1CSSC[C@@H](C(=O)N[C@H](C(N)=O)[C@@H](C)O)NC(=O)[C@H](Cc2c[nH]c3ccccc23)NC(=O)[C@H](C(C)C)NC(=O)[C@H](CC(C)C)NC(=O)[C@H](CCC(=O)O)NC(=O)CNC(=O)[C@H](Cc2ccc(C(=O)c3ccccc3)cc2)NC(=O)[C@H](Cc2c[nH]cn2)NC(=O)[C@H](Cc2c[nH]c3ccccc23)NC(=O)[C@H](C)NC1=O [BPA4, Ac-DCAWHBGELVWCT-NH2]
DAR (Trastuzumab (TMab) [1]; [5]): 1.2 | Kd (Trastuzumab (TMab) [3]): ~30 µM | reduced binding affinity (Kd fold decreased) compared to the Fc-III peptide (Trastuzumab (TMab) [3]): greater than 1700 fold

Ac-DCAWBLGELVWCT-NH2 (DCAWXLGELVWCT; Ac, NH2; BPA non-natural residue; /note=“N-term Ac”; MOD_RES (5)..(5) p-benzoyl-L-phenylalanine; /note=“C-term NH2”) [BPA3, B = BPA]
DAR (Trastuzumab (TMab) [1]; [5]): 0.2

CC(=O)N[C@@H](CC(=O)O)C(=O)N[C@H]1CSSC[C@@H](C(=O)N[C@H](C(N)=O)[C@@H](C)O)NC(=O)[C@H](Cc2c[nH]c3ccccc23)NC(=O)[C@H](C(C)C)NC(=O)[C@H](CC(C)C)NC(=O)[C@H](CCC(=O)O)NC(=O)CNC(=O)[C@H](CC(C)C)NC(=O)[C@H](Cc2c[nH]cn2)NC(=O)[C@H](Cc2c[nH]c3ccccc23)NC(=O)[C@H](C)NC1=O [Fc-III]
Kd (human IgG): 0.07 µM
